Reference: patent EP1004870A1, “Liquid barriers for assays” (Aurora Biosciences Corporation, priority 1998, dated 2000)
Values joined by “and” are separate entries in the source; they are usually repeats but may differ in a detail not shown here. Equal entries are not always repeated. Where two headings read alike, the source gives them in different places.

Molecular target: T1, M1 receptor (Homo sapiens, UniProt P11229)
T1 sequence (P11229 1-460): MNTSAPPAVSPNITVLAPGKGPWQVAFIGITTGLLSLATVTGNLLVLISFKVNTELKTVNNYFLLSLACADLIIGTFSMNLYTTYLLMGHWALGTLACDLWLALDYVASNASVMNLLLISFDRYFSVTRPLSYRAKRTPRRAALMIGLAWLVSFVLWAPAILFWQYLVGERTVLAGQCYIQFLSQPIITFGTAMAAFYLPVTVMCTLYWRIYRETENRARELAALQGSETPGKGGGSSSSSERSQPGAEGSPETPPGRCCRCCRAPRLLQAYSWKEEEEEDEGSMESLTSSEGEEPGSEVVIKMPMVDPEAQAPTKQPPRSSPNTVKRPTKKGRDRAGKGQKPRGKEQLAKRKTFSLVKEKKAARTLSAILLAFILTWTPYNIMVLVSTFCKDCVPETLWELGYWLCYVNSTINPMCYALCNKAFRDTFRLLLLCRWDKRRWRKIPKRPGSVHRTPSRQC
Assay: Antagonist assay: beta-lactamase expression in carbachol-stimulated Jurkat C2 cells (CCF2/AM fluorescence read-out), mechanical vs liquid barrier

[1] = Liquid barrier (silicone oil, Dow Corning Silicone 200 Fluid 5.0 cs), cells stimulated with carbachol, 96-well plate
[2] = Mechanical barrier (polystyrene lid), cells stimulated with carbachol, 96-well plate

Percent inhibition of beta- lactamase expression in C2 cells in response to the presence of the indicated chemical [1]	Percent inhibition of beta- lactamase expression in C2 cells in response to the presence of the indicated chemical [2]	Compound	Percent inhibition of beta- lactamase expression in C2 cells in response to the presence of the indicated chemical
		C[N+]12CCC(CC1)C(OC(=O)C(O)(c1ccccc1)c1ccccc1)C2 (stereo not drawn) [Clidinium]	82% and 91%
95%	95%	CC(C)[N+](C)(CCOC(=O)C1c2ccccc2Oc2ccccc21)C(C)C [Propantheline]	
90%	91%	C[N+]1(C)CCCC(OC(=O)C(O)(c2ccccc2)c2ccccc2)C1 (stereo not drawn) [Mepenzolate]	
78%	91%	Isopropamine	
43%	88%	CCN(CC)C(C)CN1c2ccccc2Sc2ccccc21 (stereo not drawn) [Ethopropazine]	
